From patent US8980909B2, “HDAC inhibiting derivatives of camptothecin” (Crystal Biopharmaceutical LLC, priority 2011, dated 2015)
pIC50: −log10 of the molar value.

Tests used:
RXF 393 = assay: In vitro anti-proliferation assay (ATPlite), RXF 393; assay type: cell-based; conditions: for pIC50: Homo sapiens, Renal Cancer, RXF 393, 72 hours
Protocol: (§1) Cell antiproliferation was assayed by PerkinElmer ATPlite™ Luminescence Assay System. The cancer cell lines were plated at 10 k cells per well in Costar 96-well plates with different concentration of compounds for 72 hours with […]. After that, one lyophilized substrate solution vial was reconstituted by adding 5 mL of substrate buffer solution and was agitated gently until the solution is homogeneous. 50 μL of mammalian cell lysis solution was added to 100 μL of cell suspension per well of a microplate and the plate was shaken for five minutes in an orbital shaker at 700 rpm. This procedure will lyses the cells and stabilizes the ATP. Next, 50 μL substrate solution was added to the wells and microplate was shaken for five minutes in an orbital shaker at 700 rpm. Finally, the luminescence was measured by a PerkinElmer TopCount® Microplate Scintillation Counter. Such assays, carried out with a range of doses of test compounds, allow the determination of the cellular anti-antiproliferative IC50 of the compounds of the present invention.
(§2) The cellular antiproliferative assay were conducted side-by-side for Irinotecan (a FDA approved semisynthetic Camptothecin), and CY-700 (the first-in-class dual-functional semisynthetic Camptothecin/HDAC inhibitor), in 53 different cancer cell lines of breast cancer, renal cancer, non-small cell lung cancer, colon cancer, leukemia, multiple myeloma, ovarian cancer, prostate cancer, melanoma, and CNS cancer.

NCI/ADR-RES = assay: In vitro anti-proliferation assay (ATPlite), NCI/ADR-RES; assay type: cell-based; conditions: for pIC50: Homo sapiens, Ovarian Cancer, NCI/ADR-RES, 72 hours
Protocol: as §1, §2

T-47D = assay: In vitro anti-proliferation assay (ATPlite), T-47D; assay type: cell-based; conditions: for pIC50: Homo sapiens, T47D, Breast Cancer, T-47D, 72 hours
Protocol: as §1, §2

SF-268 = assay: In vitro anti-proliferation assay (ATPlite), SF-268; assay type: cell-based; conditions: for pIC50: Homo sapiens, CNS Cancer, SF-268, 72 hours
Protocol: as §1, §2

NCI-H226 = assay: In vitro anti-proliferation assay (ATPlite), NCI-H226; assay type: cell-based; conditions: for pIC50: Homo sapiens, NSCLC, NCI-H226, 72 hours
Protocol: as §1, §2

MCF7 = assay: In vitro anti-proliferation assay (ATPlite), MCF7; assay type: cell-based; conditions: for pIC50: Homo sapiens, Breast Cancer, MCF7, 72 hours
Protocol: as §1, §2

SNB-19 = assay: In vitro anti-proliferation assay (ATPlite), SNB-19; assay type: cell-based; conditions: for pIC50: Homo sapiens, CNS Cancer, SNB-19, 72 hours
Protocol: as §1, §2

CAKI-1 = assay: In vitro anti-proliferation assay (ATPlite), CAKI-1; assay type: cell-based; conditions: for pIC50: Homo sapiens, Renal Cancer, CAKI-1, 72 hours
Protocol: as §1, §2

OVCAR-8 = assay: In vitro anti-proliferation assay (ATPlite), OVCAR-8; assay type: cell-based; conditions: for pIC50: Homo sapiens, Ovarian Cancer, OVCAR-8, 72 hours
Protocol: as §1, §2

CCRF-CEM = assay: In vitro anti-proliferation assay (ATPlite), CCRF-CEM; assay type: cell-based; conditions: for pIC50: Homo sapiens, Leukemia, CCRF-CEM, 72 hours
Protocol: as §1, §2

SNB-75 = assay: In vitro anti-proliferation assay (ATPlite), SNB-75; assay type: cell-based; conditions: for pIC50: Homo sapiens, CNS Cancer, SNB-75, 72 hours
Protocol: as §1, §2

LOX IMVI = assay: In vitro anti-proliferation assay (ATPlite), LOX IMVI; assay type: cell-based; conditions: for pIC50: Homo sapiens, Melanoma, LOX IMVI, 72 hours
Protocol: as §1, §2

SF-539 = assay: In vitro anti-proliferation assay (ATPlite), SF-539; assay type: cell-based; conditions: for pIC50: Homo sapiens, CNS Cancer, SF-539, 72 hours
Protocol: as §1, §2

SK-MEL-5 = assay: In vitro anti-proliferation assay (ATPlite), SK-MEL-5; assay type: cell-based; conditions: for pIC50: Homo sapiens, Melanoma, SK-MEL-5, 72 hours
Protocol: as §1, §2

BT-549 = assay: In vitro anti-proliferation assay (ATPlite), BT-549; assay type: cell-based; conditions: for pIC50: Homo sapiens, Breast Cancer, BT-549, 72 hours
Protocol: as §1, §2

U251 = assay: In vitro anti-proliferation assay (ATPlite), U251; assay type: cell-based; conditions: for pIC50: Homo sapiens, U-251, CNS Cancer, U251, 72 hours
Protocol: as §1, §2

HDAC-1 = HDAC-1 (Homo sapiens, UniProt Q13547); assay: Inhibition of histone deacetylase enzymatic activity (Fluor-de-Lys), HDAC-1; assay type: biochemical; conditions: HDAC subtype HDAC-1
Protocol: The following assay protocol was used to assay the compounds of the invention against the HDAC enzymes (HDAC-1, 2, 3, 4, 5, 6, 7, 8, 9, 10, and 11.). […] The enzyme stock solution was 4 μg/mL in buffer. The compounds were pre-incubated (2 μl in DMSO diluted to […] in buffer for transfer to assay plate) with enzyme (20 μl of 4 μg/ml) for 10 minutes at room temperature (35 μl pre-incubation volume). The mixture was pre-incubated for 5 minutes at room temperature. The reaction was started by bringing the temperature to 37° C. and adding 15 μl substrate. Total reaction volume was 50 μl. […] Such assays, carried out with a range of doses of test compounds, allowed the determination of an approximate IC50 value.

[1] = Solubility (comparison in words); assay type: physicochemical
[2] = In vitro activities (comparison in words, test not specified)
[3] = tested on: 53 different cancer cell lines; assay: In vitro anti-proliferation assay (ATPlite), panel of 53 cancer cell lines; assay type: cell-based; conditions: among 53 cancer cell lines, side-by-side with Irinotecan
Protocol: as §1, with “invention. […]” for “invention.”

HDAC-1, sequence (Q13547 whole entry): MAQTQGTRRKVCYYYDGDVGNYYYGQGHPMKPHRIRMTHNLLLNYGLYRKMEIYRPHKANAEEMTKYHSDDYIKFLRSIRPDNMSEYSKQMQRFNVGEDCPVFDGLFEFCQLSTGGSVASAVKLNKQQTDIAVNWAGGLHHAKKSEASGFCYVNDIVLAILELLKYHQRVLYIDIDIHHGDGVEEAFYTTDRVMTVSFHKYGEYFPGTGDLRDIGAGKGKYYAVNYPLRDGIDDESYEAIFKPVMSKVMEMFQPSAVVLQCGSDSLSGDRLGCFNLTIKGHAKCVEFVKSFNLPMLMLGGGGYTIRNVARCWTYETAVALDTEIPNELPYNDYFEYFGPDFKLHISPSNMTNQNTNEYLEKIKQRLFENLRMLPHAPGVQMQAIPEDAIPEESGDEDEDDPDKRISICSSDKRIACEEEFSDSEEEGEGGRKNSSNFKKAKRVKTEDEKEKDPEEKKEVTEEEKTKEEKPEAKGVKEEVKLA

SMILES | pIC50 (RXF 393) | pIC50 (NCI/ADR-RES) | pIC50 (T-47D) | pIC50 (SF-268) | pIC50 (NCI-H226) | pIC50 (MCF7) | pIC50 (SNB-19) | pIC50 (CAKI-1) | pIC50 (OVCAR-8) | pIC50 (CCRF-CEM) | pIC50 (SNB-75) | pIC50 (LOX IMVI) | pIC50 (SF-539) | pIC50 (SK-MEL-5) | pIC50 (BT-549) | pIC50 (U251) | further results
CCc1c2c(nc3ccc(OC(=O)N4CCC(N5CCCCC5)CC4)cc13)-c1cc3c(c(=O)n1C2)COC(=O)[C@]3(O)CC [Irinotecan, reference compound] | 4.47 | 4.37 | 4.61 | 5.41 | 5.07 | 5.21 | 4.62 | 5.00 | 4.76 | 5.46 | 4.80 | 5.46 | 5.30 | 4.94 | 4.73 | 5.39 | HDAC-1 IC50 (result in words) (HDAC-1; unit not given): No activity
CC[C@@]1(O)C(=O)OCc2c1cc1n(c2=O)Cc2cc3c(CN(C)C)c(OC(=O)N4CCN(c5ncc(C(=O)NO)cn5)CC4)ccc3nc2-1 [CY-705] |  |  |  |  |  |  |  |  |  |  |  |  |  |  |  |  | solubility as compared to CY-700 [1]: significantly better solubility; in vitro activities as compared to CY-700 [2]: comparable in vitro activities
CCc1c2c(nc3ccc(OCCCCCCC(=O)NO)cc13)-c1cc3c(c(=O)n1C2)COC(=O)[C@]3(O)CC [CY-700] | 5.64 | 5.29 | 5.68 | 6.30 | 5.92 | 6.30 | 5.96 | 6.15 | 5.57 | 6.40 | 5.64 | 6.15 | 6.22 | 5.89 | 5.59 | 6.15 | Ratio (RXF 393; Irinotecan IC50 / CY-700 IC50, RXF 393): 14.7; Ratio (NCI/ADR-RES; Irinotecan IC50 / CY-700 IC50, NCI/ADR-RES): 8.2; Ratio (T-47D; Irinotecan IC50 / CY-700 IC50, T-47D): 11.7; Ratio (SF-268; Irinotecan IC50 / CY-700 IC50, SF-268): 7.4; Ratio (NCI-H226; Irinotecan IC50 / CY-700 IC50, NCI-H226): 7.2; Ratio (MCF7; Irinotecan IC50 / CY-700 IC50, MCF7): 12.1; Ratio (SNB-19; Irinotecan IC50 / CY-700 IC50, SNB-19): 22.0; Ratio (CAKI-1; Irinotecan IC50 / CY-700 IC50, CAKI-1): 15.3; Ratio (OVCAR-8; Irinotecan IC50 / CY-700 IC50, OVCAR-8): 6.4; Ratio (CCRF-CEM; Irinotecan IC50 / CY-700 IC50, CCRF-CEM): 9.7; Ratio (SNB-75; Irinotecan IC50 / CY-700 IC50, SNB-75): 6.9; number of cancer cell lines with better in vitro potency than Irinotecan [3]: 47; Ratio (LOX IMVI; Irinotecan IC50 / CY-700 IC50, LOX IMVI): 5.2; Ratio (SF-539; Irinotecan IC50 / CY-700 IC50, SF-539): 8.9; Ratio (SK-MEL-5; Irinotecan IC50 / CY-700 IC50, SK-MEL-5): 8.6; Ratio (BT-549; Irinotecan IC50 / CY-700 IC50, BT-549): 7.0; Ratio (U251; Irinotecan IC50 / CY-700 IC50, U251): 5.5; pIC50 (HDAC-1; Fluor-de-Lys substrate, approximate IC50): 7.72
